Reference: the supplement of paper PMC12076712

Columns and labels:
Experiment in all cases: pIC50, kinobeads binding competition
Details in all cases: cell material: Jurkat lysate
IRAK4 = molecular target: T1, IRAK4 (UniProt Q9NWZ3)
T1 sequence (whole entry): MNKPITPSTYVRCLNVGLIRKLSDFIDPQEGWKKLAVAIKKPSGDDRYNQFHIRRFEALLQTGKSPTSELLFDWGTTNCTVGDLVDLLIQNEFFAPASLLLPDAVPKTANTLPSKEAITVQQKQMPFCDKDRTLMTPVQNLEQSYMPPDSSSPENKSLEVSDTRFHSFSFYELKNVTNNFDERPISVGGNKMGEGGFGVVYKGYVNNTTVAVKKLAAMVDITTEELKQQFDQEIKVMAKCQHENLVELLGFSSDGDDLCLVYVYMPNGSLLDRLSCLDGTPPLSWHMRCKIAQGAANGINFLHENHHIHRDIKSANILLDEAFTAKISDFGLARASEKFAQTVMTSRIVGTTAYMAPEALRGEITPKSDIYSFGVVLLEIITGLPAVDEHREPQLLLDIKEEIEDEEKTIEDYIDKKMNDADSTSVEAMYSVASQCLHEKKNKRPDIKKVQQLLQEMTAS

NEK3 = molecular target: T2, NEK3 (UniProt P51956)
T2 sequence (whole entry): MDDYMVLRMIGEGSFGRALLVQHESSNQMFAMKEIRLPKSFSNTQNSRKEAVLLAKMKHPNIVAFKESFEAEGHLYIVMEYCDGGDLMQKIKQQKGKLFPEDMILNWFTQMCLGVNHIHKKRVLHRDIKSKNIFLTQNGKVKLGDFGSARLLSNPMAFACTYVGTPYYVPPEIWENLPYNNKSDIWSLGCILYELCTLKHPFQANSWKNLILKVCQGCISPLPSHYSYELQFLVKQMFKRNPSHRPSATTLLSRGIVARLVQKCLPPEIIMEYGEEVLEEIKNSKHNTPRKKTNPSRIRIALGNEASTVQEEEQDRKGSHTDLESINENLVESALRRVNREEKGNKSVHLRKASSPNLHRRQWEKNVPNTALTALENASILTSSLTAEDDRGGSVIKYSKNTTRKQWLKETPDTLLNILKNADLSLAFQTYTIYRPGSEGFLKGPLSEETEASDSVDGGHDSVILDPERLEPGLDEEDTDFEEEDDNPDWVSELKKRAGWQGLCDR

TEC = molecular target: T3, TEC (UniProt P42680)
T3 sequence (whole entry): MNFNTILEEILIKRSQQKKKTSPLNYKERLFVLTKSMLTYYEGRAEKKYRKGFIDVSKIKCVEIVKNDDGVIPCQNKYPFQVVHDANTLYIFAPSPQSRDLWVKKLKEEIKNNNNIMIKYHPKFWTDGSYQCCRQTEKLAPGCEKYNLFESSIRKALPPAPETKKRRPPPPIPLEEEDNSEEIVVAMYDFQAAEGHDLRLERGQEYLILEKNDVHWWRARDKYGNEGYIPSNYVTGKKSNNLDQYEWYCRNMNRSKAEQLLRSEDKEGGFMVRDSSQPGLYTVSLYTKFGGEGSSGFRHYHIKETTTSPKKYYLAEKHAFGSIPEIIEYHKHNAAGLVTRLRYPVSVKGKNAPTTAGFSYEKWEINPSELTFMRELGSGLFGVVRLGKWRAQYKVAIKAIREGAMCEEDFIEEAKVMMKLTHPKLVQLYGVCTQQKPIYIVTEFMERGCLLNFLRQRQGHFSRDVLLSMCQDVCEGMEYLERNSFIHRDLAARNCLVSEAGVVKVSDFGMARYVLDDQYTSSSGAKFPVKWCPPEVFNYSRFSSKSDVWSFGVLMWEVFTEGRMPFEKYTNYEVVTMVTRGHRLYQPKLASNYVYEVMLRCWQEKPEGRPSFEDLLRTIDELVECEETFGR

TXK = molecular target: T4, TXK (UniProt P42681)
T4 sequence (whole entry): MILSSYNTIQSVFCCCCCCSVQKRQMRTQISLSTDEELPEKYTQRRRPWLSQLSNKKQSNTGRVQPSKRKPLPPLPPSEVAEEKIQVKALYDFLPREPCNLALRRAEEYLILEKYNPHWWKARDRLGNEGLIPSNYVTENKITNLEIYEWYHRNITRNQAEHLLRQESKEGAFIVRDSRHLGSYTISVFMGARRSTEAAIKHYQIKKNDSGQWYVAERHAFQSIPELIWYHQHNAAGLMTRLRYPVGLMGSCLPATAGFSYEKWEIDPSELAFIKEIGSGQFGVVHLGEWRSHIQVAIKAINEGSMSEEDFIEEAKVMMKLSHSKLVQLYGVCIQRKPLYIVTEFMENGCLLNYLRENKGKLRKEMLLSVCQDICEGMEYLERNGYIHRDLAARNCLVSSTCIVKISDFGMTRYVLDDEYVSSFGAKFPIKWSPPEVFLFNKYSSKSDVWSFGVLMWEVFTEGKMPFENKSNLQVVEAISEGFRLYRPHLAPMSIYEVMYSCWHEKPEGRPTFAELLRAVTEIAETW

UniProt O95747 = molecular target: UniProt O95747
UniProt Q8IW41 = molecular target: T5, UniProt Q8IW41
T5 sequence (whole entry): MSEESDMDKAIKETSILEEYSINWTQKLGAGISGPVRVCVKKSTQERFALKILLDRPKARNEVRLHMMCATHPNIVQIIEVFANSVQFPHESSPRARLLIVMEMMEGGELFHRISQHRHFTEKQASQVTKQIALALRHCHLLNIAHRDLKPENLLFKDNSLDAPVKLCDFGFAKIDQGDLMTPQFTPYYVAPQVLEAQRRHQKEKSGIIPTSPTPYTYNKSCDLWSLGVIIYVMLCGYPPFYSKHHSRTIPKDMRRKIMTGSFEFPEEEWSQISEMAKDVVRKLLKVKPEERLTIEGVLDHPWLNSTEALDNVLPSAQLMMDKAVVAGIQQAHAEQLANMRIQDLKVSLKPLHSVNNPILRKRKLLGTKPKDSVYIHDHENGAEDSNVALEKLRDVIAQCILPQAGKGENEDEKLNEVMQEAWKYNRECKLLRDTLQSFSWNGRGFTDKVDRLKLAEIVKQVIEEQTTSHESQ

Measured: pIC50

UniProt O95747, sequence (O95747 whole entry, looked up): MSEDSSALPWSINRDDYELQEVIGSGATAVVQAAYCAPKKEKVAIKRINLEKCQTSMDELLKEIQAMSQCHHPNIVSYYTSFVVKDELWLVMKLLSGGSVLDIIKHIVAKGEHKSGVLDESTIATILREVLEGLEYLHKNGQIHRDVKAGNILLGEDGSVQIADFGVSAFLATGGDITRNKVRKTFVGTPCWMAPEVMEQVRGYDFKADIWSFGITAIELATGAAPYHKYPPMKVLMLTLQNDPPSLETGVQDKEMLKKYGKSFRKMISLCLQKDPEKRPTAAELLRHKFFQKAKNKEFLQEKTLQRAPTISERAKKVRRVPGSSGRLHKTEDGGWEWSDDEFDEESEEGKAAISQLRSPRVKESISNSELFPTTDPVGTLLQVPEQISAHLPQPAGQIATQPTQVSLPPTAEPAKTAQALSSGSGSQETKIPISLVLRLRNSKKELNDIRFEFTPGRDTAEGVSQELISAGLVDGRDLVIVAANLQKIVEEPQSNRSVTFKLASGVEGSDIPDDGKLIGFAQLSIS

CCc1cnn2c(NCc3ccc[n+]([O-])c3)cc(N3CCCC[C@H]3CCO)nc12 [dinaciclib]
< 4.52: IRAK4 | NEK3 | TEC | TXK | UniProt O95747 | UniProt Q8IW41
